Literature values, collected in publication PMC3480965 (Molecular pharmaceutics, 2012).
pIC50: −log10 of the molar value.

Assays:
[1] = target: melanocortin-1 (MC1) receptor (Mus musculus, UniProt Q01727); details: read-out: MC1 receptor binding affinity (IC50); B16/F1 melanoma cells
[2] = test system: melanoma; details: in vivo, 2 h

Sequence of melanocortin-1 (MC1) receptor (Q01727 whole entry): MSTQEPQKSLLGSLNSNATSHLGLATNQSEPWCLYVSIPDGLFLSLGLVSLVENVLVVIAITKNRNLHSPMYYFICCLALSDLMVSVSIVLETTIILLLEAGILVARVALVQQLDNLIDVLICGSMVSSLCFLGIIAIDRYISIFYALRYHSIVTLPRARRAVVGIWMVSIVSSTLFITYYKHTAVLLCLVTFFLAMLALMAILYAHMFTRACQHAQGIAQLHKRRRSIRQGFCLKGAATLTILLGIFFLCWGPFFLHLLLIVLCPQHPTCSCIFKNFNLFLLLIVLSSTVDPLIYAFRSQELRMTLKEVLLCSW

Row | Substance | pIC50 [1] | Liver uptake [2] [% ID/g] | Melanoma uptake [2] [% ID/g]
1 | 1,4,7,10-tetraazacyclononane-1,4,7,10-tetraacetic acid-GGNle-CycMSHhex (GGXDHFRWK; X3 = norleucine (Nle); D-Phe6; lactam bridge between Asp4 and Lys9 side chains (cyclic); C-terminal amide; 64Cu-labelled for biod) [DOTA-GGNle-CycMSHhex] | 8.68 |  | 
2 | Ac-Nle-Asp-His-D-Phe-Arg-Trp-Gly-Lys(^64Cu-DOTA)-NH2 [^64Cu-DOTA-NAPamide] |  | 11.0 | 4.63 ± 0.45
3 | ^64Cu-DOTA-Re-[Cys[3],[4],[10], D-Phe^7, Arg^11]a-MSH3–13 [^64Cu-DOTA-ReCCMSH(Arg^11)] |  | 7.3 | 8.80 ± 1.70
